Data set [1] in a line: Inhibition of LPS-induced NO production in mouse BV-2 cells. In kind it is functional, cell-based.
For the next data set, the system named is BV-2. Briefly: Cytotoxicity against mouse BV-2 cells. The class given is cell-based.

What is called IC50 is the midpoint of a concentration-inhibition curve. Read a high IC50 as a need for much substance. `CC(=O)O[C@@H]1[C@@]2(CO2)[C@@H]2CC[C@H]3[C@]45CCCC(C)(C)[C@H]4[C@H](OC(C)=O)[C@@](O)(OC5)[C@]13C2`: in data set [1], the IC50 was more than 100 µM. In addition, the Activity entry with BV-2 was “Non-Toxic”.

In data set [1], `C=C1[C@@H]2CC[C@H]3[C@]45CCCC(C)(C)[C@H]4[C@H](O)[C@@](O)(OC5)[C@]3(C2)[C@@H]1O` displayed an IC50 of more than 60 µM. In the data set with BV-2, the Activity entry was “Non-Toxic”.

The molecule `CSC(=N)N` displayed an IC50 in data set [1] of 3.6 µM. The Activity result with BV-2 is on record as “Non-Toxic”.

Turning to `C=C1[C@@H]2CC[C@H]3[C@]4(C)CCCC(C)(C)[C@H]4[C@H](OC(C)=O)C(=O)[C@]3(C2)[C@@H]1OC(C)=O`, in data set [1], the IC50 came to 7.3 µM. Moreover, the Activity result in the data set on BV-2 is recorded as “Non-Toxic”.

`CC(=O)O[C@H]1[C@](O)(CO)[C@@H]2CC[C@H]3[C@]45CCCC(C)(C)[C@H]4[C@H](OC(C)=O)[C@@](O)(OC5)[C@]13C2` had an IC50 in data set [1] of 44.1 µM. The Activity entry in the data set on BV-2 is recorded as “Non-Toxic”.

For `CC(=O)O[C@@H]1[C@@]2(CO2)[C@@H]2CC[C@H]3[C@]45CCCC(C)(C)[C@H]4[C@H](OC(C)=O)[C@@](O)(OC5)[C@]13[C@@H]2O`, in data set [1], the IC50 is more than 100 µM. Besides, the Activity result in the data set on BV-2 is given as “Non-Toxic”.

`CC(=O)O[C@H]1[C@]2(CO2)[C@@H]2CC[C@H]3[C@]45CCCC(C)(C)[C@H]4[C@H](OC(C)=O)[C@@](O)(OC5)[C@@]31C2` returned a half-inhibitory concentration (IC50) in data set [1] of 15.6 µM. In addition, the Activity entry in the data set with BV-2 is recorded as “Non-Toxic”.

`CC(=O)O[C@H]1CCC(C)(C)[C@@H](CO)[C@@]12COC(=O)[C@@]13C[C@@H](CC[C@H]12)[C@@H](C)C3=O` had an IC50 in data set [1] of more than 100 µM. Besides, the Activity entry with BV-2 is reported as “Non-Toxic”.

Consider `C=C1[C@@H](OC(C)=O)[C@]23[C@H](O)[C@H]1CC[C@H]2[C@@]12CO[C@]3(O)[C@@H](O)[C@@H]1C(C)(C)CC[C@@H]2OC(C)=O`, for which, in data set [1], the IC50 is more than 100 µM. For the same molecule, the Activity entry with BV-2 is recorded as “Non-Toxic”.

The molecule `CC(=O)O[C@@H]1[C@@](O)(CO)[C@@H]2CC[C@H]3[C@]45CCCC(C)(C)[C@H]4[C@H](OC(C)=O)[C@@](O)(OC5)[C@]13C2` registered a half-inhibitory concentration (IC50) in data set [1] of 40.1 µM. Also, in the data set with BV-2, the Activity entry is “Non-Toxic”.

In turn, `C=C1[C@@H]2CC[C@H]3[C@]45CCCC(C)(C)[C@H]4[C@H](OC(C)=O)[C@@](O)(OC5)[C@]3(C2)[C@@H]1OC(C)=O` registered an IC50 in data set [1] of 26.2 µM. Moreover, in the data set with BV-2, the Activity entry is reported as “Non-Toxic”.
